# Source: patent US20240218022A1, “ANTI-VISTA MACROCYCLIC PEPTIDES AND COMPOSITIONS” (BRISTOL-MYERS SQUIBB COMPANY, priority 2022, published 2024)
# Positions of bridges follow the written chain, without caps; N, C: chain ends. Non-standard residues stand in square brackets, D forms with d. Residues, ends and D or L forms follow the SMILES beside them. Ahp(2) = CCCCC[C@H](N)C(=O)O; NHexGly = CCCCCCNCC(=O)O; Nle = CCCC[C@H](N)C(=O)O; Orn = NCCC[C@H](N)C(=O)O; Dab = NCC[C@H](N)C(=O)O
# Molecular target: T1, mouse VISTA (mVISTA) (Mus musculus, UniProt Q9D659)
# T1 construct: expressed in transfected cells; host or cells: Human embryonic kidney 293T cells
# T1 sequence (Q9D659 33-308): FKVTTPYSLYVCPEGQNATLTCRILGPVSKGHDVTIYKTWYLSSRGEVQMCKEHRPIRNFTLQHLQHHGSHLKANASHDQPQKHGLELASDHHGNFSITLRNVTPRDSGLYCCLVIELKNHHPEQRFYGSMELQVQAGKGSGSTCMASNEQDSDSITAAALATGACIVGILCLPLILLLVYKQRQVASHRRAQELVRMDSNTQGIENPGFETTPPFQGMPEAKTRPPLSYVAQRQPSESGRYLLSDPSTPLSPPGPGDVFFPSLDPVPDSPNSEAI
# Test: Cell-Based Binding High-Content Assay For mVISTA (HC CBA mVISTA)
# Conditions: 293T cells expressing mouse VISTA; competition with biotinylated peptide (2 nM); read-out: HC CBA mVISTA IC50
# How it was run: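 Read-out: Alexa 647–streptavidin signal imaged on fixed, Hoechst-stained mVISTA-293T cells, with IC50 taken from a four-parameter logistic curve. Compounds competed with 2 nM biotinylated peptide for 30 min at room temperature, tested under both no-wash and wash (1 h compound, media exchange, 1 h) formats.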
row,Structure (SMILES),IC50 [nM]
1,CCCCCCN1CC(=O)N[C@@H](Cc2ccc(O)cc2)C(=O)N[C@@H](CC(C)C)C(=O)N[C@@H](CC(N)=O)C(=O)N[C@@H](CCCNC(=N)N)C(=O)N[C@@H](CC(C)C)C(=O)N[C@@H](CCCCC)C(=O)N2CCC[C@H]2C(=O)N[C@@H](C(C)C)C(=O)N[C@@H](CCCNC(=N)N)C(=O)N[C@H](C(=O)NCC(=O)O)CSCC(=O)N[C@@H](Cc2ccccc2)C(=O)N[C@@H](Cc2ccc(O)cc2)C(=O)N[C@@H](CC(=O)O)C1=O [Example 1030] ({CH2CO}-FYD[NHexGly]YLNRL[Ahp(2)]PVRCG-OH; thioether N-14),34.5
2,CCCCCCN1CC(=O)N[C@@H](Cc2ccc(O)cc2)C(=O)N[C@@H](CCCCC)C(=O)N[C@@H](CC(N)=O)C(=O)N[C@@H](CCCNC(=N)N)C(=O)N[C@@H](CC(C)C)C(=O)N[C@@H](CCCCC)C(=O)N2CCC[C@H]2C(=O)N[C@@H](C(C)C)C(=O)N[C@@H](CO)C(=O)N[C@H](C(=O)NCC(N)=O)CSCC(=O)N[C@@H](Cc2ccccc2)C(=O)N[C@@H](Cc2ccc(O)cc2)C(=O)N[C@@H](CC(=O)O)C1=O [Example 1031] ({CH2CO}-FYD[NHexGly]Y[Ahp(2)]NRL[Ahp(2)]PVSCG-NH2; thioether N-14),34.7
3,CCCCCCN1CC(=O)N[C@@H](Cc2ccc(O)cc2)C(=O)N[C@@H](CCCCC)C(=O)N[C@@H](CC(N)=O)C(=O)N[C@@H](C)C(=O)N[C@@H](CC(C)C)C(=O)N[C@@H](CCCCC)C(=O)N2CCC[C@H]2C(=O)N[C@@H](C(C)C)C(=O)N[C@@H](CO)C(=O)N[C@H](C(=O)NCC(N)=O)CSCC(=O)N[C@@H](Cc2ccccc2)C(=O)N[C@@H](Cc2ccc(O)cc2)C(=O)N[C@@H](CC(=O)O)C1=O [Example 1032] ({CH2CO}-FYD[NHexGly]Y[Ahp(2)]NAL[Ahp(2)]PVSCG-NH2; thioether N-14),11.1
4,CCCCCCN1CC(=O)N[C@@H](Cc2ccc(O)cc2)C(=O)N[C@@H](CCCC)C(=O)N[C@@H](CC(N)=O)C(=O)N[C@@H](CCCNC(=N)N)C(=O)N[C@@H](CC(C)C)C(=O)N[C@@H](CCCCC)C(=O)N2CCC[C@H]2C(=O)N[C@@H](C(C)C)C(=O)N[C@@H](CO)C(=O)N[C@H](C(=O)NCC(N)=O)CSCC(=O)N[C@@H](Cc2ccccc2)C(=O)N[C@@H](Cc2ccc(O)cc2)C(=O)N[C@@H](CC(=O)O)C1=O [Example 1033] ({CH2CO}-FYD[NHexGly]Y[Nle]NRL[Ahp(2)]PVSCG-NH2; thioether N-14),16.7
5,CCCCCCN1CC(=O)N[C@@H](Cc2ccc(O)cc2)C(=O)N[C@@H](CCCCC)C(=O)N[C@@H](CC(N)=O)C(=O)N[C@@H](CCCNC(=N)N)C(=O)N[C@@H](CC(C)C)C(=O)N[C@@H](CCCCC)C(=O)N2CCC[C@H]2C(=O)N[C@@H](C(C)C)C(=O)N[C@@H](CO)C(=O)N[C@H](C(=O)NCC(=O)O)CSCC(=O)N[C@@H](Cc2ccccc2)C(=O)N[C@@H](Cc2ccc(O)cc2)C(=O)N[C@@H](CC(=O)O)C1=O [Example 1034] ({CH2CO}-FYD[NHexGly]Y[Ahp(2)]NRL[Ahp(2)]PVSCG-OH; thioether N-14),3.7
6,CCCCCCN1CC(=O)N[C@@H](Cc2ccc(O)cc2)C(=O)N[C@@H](CCCCC)C(=O)N[C@@H](CC(N)=O)C(=O)N[C@@H](CCCN)C(=O)N[C@@H](CC(C)C)C(=O)N[C@@H](CCCCC)C(=O)N2CCC[C@H]2C(=O)N[C@@H](C(C)C)C(=O)N[C@@H](CO)C(=O)N[C@H](C(=O)NCC(N)=O)CSCC(=O)N[C@@H](Cc2ccccc2)C(=O)N[C@@H](Cc2ccc(O)cc2)C(=O)N[C@@H](CC(=O)O)C1=O [Example 1036] ({CH2CO}-FYD[NHexGly]Y[Ahp(2)]N[Orn]L[Ahp(2)]PVSCG-NH2; thioether N-14),20.1
7,CCCCCCN1CC(=O)N[C@@H](Cc2ccc(O)cc2)C(=O)N[C@@H](CCCCC)C(=O)N[C@@H](CC(=O)O)C(=O)N[C@@H](CCCNC(=N)N)C(=O)N[C@@H](CC(C)C)C(=O)N[C@@H](CCCCC)C(=O)N2CCC[C@H]2C(=O)N[C@@H](C(C)C)C(=O)N[C@@H](CO)C(=O)N[C@H](C(=O)NCC(N)=O)CSCC(=O)N[C@@H](Cc2ccccc2)C(=O)N[C@@H](Cc2ccc(O)cc2)C(=O)N[C@@H](CC(=O)O)C1=O [Example 1038] ({CH2CO}-FYD[NHexGly]Y[Ahp(2)]DRL[Ahp(2)]PVSCG-NH2; thioether N-14),38.4
8,CCCCCCN1CC(=O)N[C@@H](Cc2ccc(O)cc2)C(=O)N[C@@H](CC(C)C)C(=O)N[C@@H](CC(N)=O)C(=O)N[C@@H](CCCNC(=N)N)C(=O)N[C@@H](CC(C)C)C(=O)N[C@@H](CCCCC)C(=O)N2CCC[C@H]2C(=O)N[C@@H](C(C)C)C(=O)N[C@@H](CO)C(=O)N[C@H](C(=O)NCC(N)=O)CSCC(=O)N[C@@H](Cc2ccccc2)C(=O)N[C@@H](Cc2ccc(O)cc2)C(=O)N[C@@H](CC(=O)O)C1=O [Example 1040] ({CH2CO}-FYD[NHexGly]YLNRL[Ahp(2)]PVSCG-NH2; thioether N-14),5.4
9,CCCCCCN1CC(=O)N[C@@H](Cc2ccc(O)cc2)C(=O)N[C@@H](CC(C)C)C(=O)N[C@@H](CC(=O)O)C(=O)N[C@@H](CCCNC(=N)N)C(=O)N[C@@H](CC(C)C)C(=O)N[C@@H](CCCCC)C(=O)N2CCC[C@H]2C(=O)N[C@@H](C(C)C)C(=O)N[C@@H](CO)C(=O)N[C@H](C(=O)NCC(N)=O)CSCC(=O)N[C@@H](Cc2ccccc2)C(=O)N[C@@H](Cc2ccc(O)cc2)C(=O)N[C@@H](CC(=O)O)C1=O [Example 1041] ({CH2CO}-FYD[NHexGly]YLDRL[Ahp(2)]PVSCG-NH2; thioether N-14),24.9
10,CCCCCCN1CC(=O)N[C@@H](Cc2ccc(O)cc2)C(=O)N[C@@H](CC(C)C)C(=O)N[C@@H](CC(N)=O)C(=O)N[C@@H](CCCNC(=N)N)C(=O)N[C@@H](CC(C)C)C(=O)N[C@@H](CCCCC)C(=O)N2CCC[C@H]2C(=O)N[C@@H](C(C)C)C(=O)N[C@@H](CO)C(=O)N[C@H](C(=O)NCC(=O)O)CSCC(=O)N[C@@H](Cc2ccccc2)C(=O)N[C@@H](Cc2ccc(O)cc2)C(=O)N[C@@H](CC(=O)O)C1=O [Example 1043] ({CH2CO}-FYD[NHexGly]YLNRL[Ahp(2)]PVSCG-OH; thioether N-14),17.7
11,CCCCCCN1CC(=O)N[C@@H](Cc2ccc(O)cc2)C(=O)N[C@@H](CCCCC)C(=O)NCC(=O)N[C@@H](CCCNC(=N)N)C(=O)N[C@@H](CC(C)C)C(=O)N[C@@H](CCCCC)C(=O)N2CCC[C@H]2C(=O)N[C@@H](C(C)C)C(=O)N[C@@H](CO)C(=O)N[C@H](C(=O)NCC(=O)O)CSCC(=O)N[C@@H](Cc2ccccc2)C(=O)N[C@@H](Cc2ccc(O)cc2)C(=O)N[C@@H](CC(=O)O)C1=O [Example 1044] ({CH2CO}-FYD[NHexGly]Y[Ahp(2)]GRL[Ahp(2)]PVSCG-OH; thioether N-14),21.4

# Continued, values first:
row,IC50 [nM],Structure (SMILES)
1,1.1,CCCCCCN1CC(=O)N[C@@H](Cc2ccc(O)cc2)C(=O)N[C@@H](CCCC)C(=O)N[C@@H](CC(=O)O)C(=O)N[C@@H](CCCNC(=N)N)C(=O)N[C@@H](CC(C)C)C(=O)N[C@@H](CCCCC)C(=O)N2CCC[C@H]2C(=O)N[C@@H](C(C)C)C(=O)N[C@@H](CC(N)=O)C(=O)N[C@H](C(=O)NCC(=O)O)CSCC(=O)N[C@@H](Cc2ccccc2)C(=O)N[C@@H](Cc2ccc(O)cc2)C(=O)N[C@@H](CC(=O)O)C1=O [Example 1029] ({CH2CO}-FYD[NHexGly]Y[Nle]DRL[Ahp(2)]PVNCG-OH; thioether N-14)
2,30.4,CCCCCCN1CC(=O)N[C@@H](Cc2ccc(O)cc2)C(=O)N[C@@H](CCCCC)C(=O)N[C@@H](CC(N)=O)C(=O)N[C@@H](CCCCN)C(=O)N[C@@H](CC(C)C)C(=O)N[C@@H](CCCCC)C(=O)N2CCC[C@H]2C(=O)N[C@@H](C(C)C)C(=O)N[C@@H](CO)C(=O)N[C@H](C(=O)NCC(N)=O)CSCC(=O)N[C@@H](Cc2ccccc2)C(=O)N[C@@H](Cc2ccc(O)cc2)C(=O)N[C@@H](CC(=O)O)C1=O [Example 1035] ({CH2CO}-FYD[NHexGly]Y[Ahp(2)]NKL[Ahp(2)]PVSCG-NH2; thioether N-14)
3,36.4,CCCCCCN1CC(=O)N[C@@H](Cc2ccc(O)cc2)C(=O)N[C@@H](CCCCC)C(=O)N[C@@H](CC(N)=O)C(=O)N[C@@H](CCN)C(=O)N[C@@H](CC(C)C)C(=O)N[C@@H](CCCCC)C(=O)N2CCC[C@H]2C(=O)N[C@@H](C(C)C)C(=O)N[C@@H](CO)C(=O)N[C@H](C(=O)NCC(N)=O)CSCC(=O)N[C@@H](Cc2ccccc2)C(=O)N[C@@H](Cc2ccc(O)cc2)C(=O)N[C@@H](CC(=O)O)C1=O [Example 1037] ({CH2CO}-FYD[NHexGly]Y[Ahp(2)]N[Dab]L[Ahp(2)]PVSCG-NH2; thioether N-14)
4,2.2,CCCCCCN1CC(=O)N[C@@H](Cc2ccc(O)cc2)C(=O)N[C@@H](CCCCC)C(=O)NCC(=O)N[C@@H](CCCNC(=N)N)C(=O)N[C@@H](CC(C)C)C(=O)N[C@@H](CCCCC)C(=O)N2CCC[C@H]2C(=O)N[C@@H](C(C)C)C(=O)N[C@@H](CO)C(=O)N[C@H](C(=O)NCC(N)=O)CSCC(=O)N[C@@H](Cc2ccccc2)C(=O)N[C@@H](Cc2ccc(O)cc2)C(=O)N[C@@H](CC(=O)O)C1=O [Example 1039] ({CH2CO}-FYD[NHexGly]Y[Ahp(2)]GRL[Ahp(2)]PVSCG-NH2; thioether N-14)
5,36.3,CCCCCCN1CC(=O)N[C@@H](Cc2ccc(O)cc2)C(=O)N[C@@H](CCCCC)C(=O)N[C@@H](C)C(=O)N[C@@H](CCCNC(=N)N)C(=O)N[C@@H](CC(C)C)C(=O)N[C@@H](CCCCC)C(=O)N2CCC[C@H]2C(=O)N[C@@H](C(C)C)C(=O)N[C@@H](CO)C(=O)N[C@H](C(=O)NCC(=O)O)CSCC(=O)N[C@@H](Cc2ccccc2)C(=O)N[C@@H](Cc2ccc(O)cc2)C(=O)N[C@@H](CC(=O)O)C1=O [Example 1042] ({CH2CO}-FYD[NHexGly]Y[Ahp(2)]ARL[Ahp(2)]PVSCG-OH; thioether N-14)
